Reference: paper PMC11178908, “Diabetes drugs activate neuroprotective pathways in models of neonatal hypoxic-ischemic encephalopathy” (EMBO Molecular Medicine, 2024)
Where “and” joins values, the source holds several entries; their conditions need not be identical. Equal entries are not always repeated. Entries after “also recorded” stand apart in the source; their conditions may differ.

Columns and labels:
CREB = CREB expression (qPCR) in primary neurons exposed to OGD; type: cell-based, CD1 mice; details: p = 0.0016 exendin-4, p = 0.0002 semaglutide
Experimental: (§2) Cells were plated at a density of 2 × 10^6 cells/6 cm plate and propagated. At DIV 10–12, neurons were subjected to oxygen–glucose deprivation (OGD) in neurobasal-A medium lacking glucose and incubated in a hypoxia chamber (Billups-Rothenburg Inc., Del Mar, CA, USA) filled with an anoxic atmosphere of 5% CO2 balanced in nitrogen at 37 °C for 2 h. […] Culture medium was assayed after 24 h.
(§3) RNA from neuron cultures or brains was extracted and isolated using RNeasy Mini kit (Qiagen) and first-strand cDNA was generated using High-Capacity cDNA Reverse Transcription kit (Applied Biosystems). Quantitative RT-PCR was carried out using a StepOnePlus (Applied Biosystems) with the SsoAdvanced™ Universal SYBR Green PCR Core Reagents Supermix (Bio-Rad). Primers sequences were designed to detect GLP1-R, CREB, GSK3β, il-10, IL-4, IL-1β, ATF-3, Bcl-2, Bcl-xL (Appendix Table S1). Data from StepOne™ software v2.3 were calibrated to Gapdh, and the relative quantitation of gene expression was performed using the comparative CT method.

ATF-3 = ATF-3 expression (qPCR, immunofluorescence) in primary neurons exposed to OGD; type: cell-based, CD1 mice
Experimental: as §2, §3
Neuronal cultures (n = 6 per group) were stained by simultaneous overnight incubation with ATF-3 and anti-NeuN antibodies (Appendix Table S2). Representative images were captured using a Zeiss LSM710 confocal microscope and Zen software (Carl Zeiss AG). […] All images were processed using Imaris v.9.1 (Bitplane AG).

human GLP1-R = test: GLP1-R activation, luciferase reporter in GLP1-R/pCRE-luciferase/CHO-K1 cells; type: cell-based; details: exendin-9 (500 nM) with 1 μM semaglutide or exendin-4
Experimental: For biological evaluation of GLP-1/Fc for human GLP1-R activation, GLP1-R/pCRE-Luciferase-co-expressed CHO cell lines were established using the lipofectamine method. […] Using a luciferase assay system (Promega – E1500), activity of the GLP1 receptor can be assessed following treatment with GLP1-R agonists for 24 h in 96-well plates.

HIF-1-α = HIF-1-α expression (qPCR) in primary neurons exposed to OGD; type: cell-based, CD1 mice; details: p < 0.0001 exendin-4, p < 0.0001 semaglutide
Experimental: as §2, §3

caspase 3 = test: Caspase 3 activity in primary neurons exposed to OGD; type: cell-based, CD1 mice
Experimental: as §2
Culture medium was assayed after treatment at 24 h post-OGD. All samples were processed using Multiplex caspases 3, 8 and 9 activity assay kit as per manufacturer’s instructions (Abcam – Ab219915).

GLP1-R = test: cAMP content in the brain of naïve P10 mice (blood-brain barrier crossing); type: in vivo
Excerpt: Brains of P10 naive mice or treated at the different time points were collected (n = 4 per group). All samples were processed using AMP direct immunoassay kit as per manufacturer’s instructions (Abcam).

pGSK3β-S9 = pGSK3β-S9 protein level in brain (western blot) after HI
Experimental: Tissues were homogenized (Ultra-Turrax TP, IKA Labortechnik, Wasserburg, Germany) on ice in 300 ml of RIPA lysis buffer (Thermo) per 100 mg of tissue with 1X protease inhibitor cocktail (Thermo) and incubated for 30 min. Lysates were centrifuged at 14,000 × g, 4 °C for 20 min and overall protein concentrations of the supernatant were determined by Pierce BCA Protein Assay (Life Technologies). […] Proteins were transferred to PDVF membrane at 400 mA for 1 h and membrane was blocked for 1 h at 4 °C with 5% BSA in TBS with 3% Tween-20. Membranes were subsequently incubated overnight at 4 °C with primary antibodies (Appendix Table S2) with 3% BSA in TBS with 3% Tween-20. […] Blots were developed with the ECL system (SuperSignal West Pico, Life Technologies) and imaged using a Genegnome imager (Syngene, Cambridge, UK).
All experiments involved litters of postnatal day 10 CD1 mice (P10) bred in-house. […] This was achieved using heating mats, heated incubators and prompt returning of pups to the dam. […] The left common carotid artery was permanently occluded with 8/0 polypropylene suture and the wound closed with tissue glue. The body temperature was maintained using a heating mat. The mice recovered in an incubator at 37 °C and were returned to the dam for 1 h. […] The pups were then immediately returned to the dam. […] All treatments were administered immediately after HI via intraperitoneal administration. […] Treated animal were culled at either 48 h post HI for ST studies or 60 days post HI for LT studies.

[1] = Blood glucose / hypoglycaemia; type: in vivo, P10 CD1 mice; details: for blood glucose: HI P10 mice
Experimental: (§1) Thereafter, a dosing experiment was conducted to evaluate the optimal dose for semaglutide in the same neonatal HIE model (Fig. EV2F) and brain protection was measured using a macroscopic scoring system to assess the size of the infarct.
Blood glucose levels (mmol/l) were measured using a blood glucose monitor (CodeFree, SD Biosensor) in naive controls and mice following one semaglutide dose administration (0.25 µg/g) with or without glucose supplementation, intraperitoneally or subcutaneously to determine the best route of administration. Blood samples were collected via cardiac puncture at 0.5 h, 2 h, 24 h, 7 days, and 14 days for glucose test. Brains of P10 naive mice or treated at the different time points were collected (n = 4 per group). All samples were processed using […] as per manufacturer’s instructions (Abcam).

[2] = test system: P10 CD1 mice with surgically induced HI; test: Mortality after semaglutide in neonatal mice with HI; type: in vivo; details: semaglutide 0.5 µg/g (500 µg/kg), no glucose
Experimental: as §1
The body temperature was maintained using a heating mat. […] The pups were then immediately returned to the dam. […] 1% mortality was observed following this procedure. […] The study design is illustrated in Fig. EV1.

Row | effect of antagonist on anti-apoptotic effects of exendin-4 and semaglutide (caspase 3; Bcl-xL, Bcl-2, caspases 3, 8, 9) | Compound | CREB expression vs OGD (CREB) | ATF-3 average expression/GAPDH (ATF-3; OGD neurons, treatment 2 h after OGD, qPCR, single samples, n = 3, listed as Ex-9) | ATF-3 expression vs OGD (ATF-3; qPCR and immunofluorescence, p = 0.0378 exendin-4, p = 0.0226 semaglutide) | effect of antagonist on agonist-induced luciferase expression (human GLP1-R) | HIF-1-α expression vs OGD (HIF-1-α) | Caspase 3 activity (caspase 3; 24 h post-OGD, single replicates, n = 5, listed as Ex-9) | blood-brain barrier crossing (GLP1-R; IP, naïve neonatal mice) | entry into the brain and GLP1-R activation, IP vs SC (GLP1-R; p < 0.0001 at 30 mins, p = 0.0024 at 2 h) | pGSK3β-S9 protein level (pGSK3β-S9; after HI, western blot, relative to β-actin, single animals, n = 4) | pGSK3β-S9 protein level vs HI saline (pGSK3β-S9; p = 0.0001 both) | blood glucose ([1]; 0.5 µg/g IP, 30 min, p = 0.0002) | blood glucose ([1]; 0.5 µg/g IP, 2 h, p = 0.0003) | blood glucose ([1]; 0.5 µg/g IP, 24 h, p = 0.0003) | blood glucose ([1]; 0.5 µg/g SC, 2 h, p = 0.0180) | blood glucose ([1]; 0.5 µg/g SC, 24 h, p = 0.0289) | hypoglycaemia with oral glucose supplementation ([1]; 2 mg/g oral glucose, semaglutide 0.5 µg/g) | fall in blood glucose ([1]; intraperitoneal, high dose in HI neonatal mice) | mortality / recovery after HI surgery [2]
1 | inhibited the anti-apoptotic effects | exendin 9-39 [exendin-9] | blocked this effect | 21.697 and 22.687 and 26.651 | inhibited this effect | inhibited | inhibited this improvement | 1.4812 and 1.737 and 1.2406 and 1.699 and 1.511 |  |  |  |  |  |  |  |  |  |  |  | 
2 |  | CC[C@H](C)[C@H](NC(=O)[C@H](Cc1ccccc1)NC(=O)[C@H](CCC(=O)O)NC(=O)[C@H](CCCCNC(=O)COCCOCCNC(=O)COCCOCCNC(=O)CC[C@H](NC(=O)CCCCCCCCCCCCCCCCC(=O)O)C(=O)O)NC(=O)[C@H](C)NC(=O)[C@H](C)NC(=O)[C@H](CCC(N)=O)NC(=O)CNC(=O)[C@H](CCC(=O)O)NC(=O)[C@H](CC(C)C)NC(=O)[C@H](Cc1ccc(O)cc1)NC(=O)[C@H](CO)NC(=O)[C@H](CO)NC(=O)[C@@H](NC(=O)[C@H](CC(=O)O)NC(=O)[C@H](CO)NC(=O)[C@@H](NC(=O)[C@H](Cc1ccccc1)NC(=O)[C@@H](NC(=O)CNC(=O)[C@H](CCC(=O)O)NC(=O)C(C)(C)NC(=O)[C@@H](N)Cc1cnc[nH]1)[C@@H](C)O)[C@@H](C)O)C(C)C)C(=O)N[C@@H](C)C(=O)N[C@@H](Cc1c[nH]c2ccccc12)C(=O)N[C@@H](CC(C)C)C(=O)N[C@H](C(=O)N[C@@H](CCCNC(=N)N)C(=O)NCC(=O)N[C@@H](CCCNC(=N)N)C(=O)NCC(=O)O)C(C)C [semaglutide] |  |  |  |  |  |  | cross the blood-brain barrier | more rapid when the agonist was given IP compared with subcutaneously | 0.3664 and 0.5017 and 0.5395 and 0.3157 | modulated | Statistically significant hypoglycaemia | Statistically significant hypoglycaemia | Statistically significant hypoglycaemia | Statistically significant hypoglycaemia | Statistically significant hypoglycaemia | completely compensated for by oral supplementation with 2 mg/g glucose | drop significantly within 30 min | increased mortality; also recorded: some mice did not recover from HI surgery
